The record followed here is the supplement of paper PMC10307832.

Common to all, as to assay: relative viability (nuclei count vs DMSO), 5 days (fraction); higher = more cells survive
Compound in the test “IMD-0354 + Trametinib”: O=C(Nc1cc(C(F)(F)F)cc(C(F)(F)F)c1)c1cc(Cl)ccc1O [IMD-0354] + CC(=O)Nc1cccc(-n2c(=O)n(C3CC3)c(=O)c3c(Nc4ccc(I)cc4F)n(C)c(=O)c(C)c32)c1 [Trametinib] (partner 0.02 µM)
The essentials: (§1)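 Lung cancer cell lines, seeded in 1536-well plates, were treated the following day by pin tool with a single drug or with five library-drug doses (not always all listed) in √10 steps on top of a fixed anchor-drug dose. Cells were fixed and nuclei stained in one step after 5 days, and nuclei were counted. Relative viability is the nuclei count for treated wells divided by that for vehicle wells, reported as medians of duplicate plates.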

Compound in the test “IMD-0354 + Linsitinib”: O=C(Nc1cc(C(F)(F)F)cc(C(F)(F)F)c1)c1cc(Cl)ccc1O [IMD-0354] + C[C@]1(O)C[C@@H](c2nc(-c3ccc4ccc(-c5ccccc5)nc4c3)c3c(N)nccn32)C1 [Linsitinib] (partner 1 µM)
The essentials:
as §1

Compound in the test “IMD-0354 + Decitabine”: O=C(Nc1cc(C(F)(F)F)cc(C(F)(F)F)c1)c1cc(Cl)ccc1O [IMD-0354] + Nc1ncn([C@H]2C[C@H](O)[C@@H](CO)O2)c(=O)n1 [Decitabine] (partner 2 µM)
The essentials:
as §1

Compound in the test “CX-5461 + Luminespib”: Cc1cnc(CNC(=O)c2c(=O)c3ccc(N4CCCN(C)CC4)nc3n3c2sc2ccccc23)cn1 [CX-5461] + CCNC(=O)c1noc(-c2cc(C(C)C)c(O)cc2O)c1-c1ccc(CN2CCOCC2)cc1 [Luminespib] (partner 0.01 µM)
The method, boiled down: as §1

As to NCI-H460, the relative viability with IMD-0354 + Trametinib (first compound 0.04 µM) turned out to be 0.196; with IMD-0354 + Trametinib (first compound 0.1265 µM), 0.173; in the test with IMD-0354 + Trametinib (first compound 0.4 µM), 0.0878; with IMD-0354 + Trametinib (first compound 1.265 µM), 0.0353; in the test with IMD-0354 + Trametinib (first compound 4 µM), 0.0199; with IMD-0354 + Linsitinib (first compound 0.04 µM), 1.2. The relative viability in the test with IMD-0354 + Linsitinib (first compound 0.1265 µM) was found to be 0.709; with IMD-0354 + Linsitinib (first compound 0.4 µM), 0.278; with IMD-0354 + Linsitinib (first compound 1.265 µM) it was 0.0367; in the test with IMD-0354 + Linsitinib (first compound 4 µM), 0.0126; with IMD-0354 + Decitabine (first compound 0.04 µM), 0.401; in the test with IMD-0354 + Decitabine (first compound 0.1265 µM), 0.561. Also, the relative viability in the test with IMD-0354 + Decitabine (first compound 0.4 µM) was found to be 0.183; with IMD-0354 + Decitabine (first compound 1.265 µM) it was 0.0498; in the test with IMD-0354 + Decitabine (first compound 4 µM), 0.0274; in the test with CX-5461 + Luminespib (first compound 0.01 µM) it was 0.0291; with CX-5461 + Luminespib (first compound 0.03162 µM), 0.0347; with CX-5461 + Luminespib (first compound 0.3162 µM) it was 0.041. Moreover, in the test with CX-5461 + Luminespib (first compound 1 µM), the relative viability is 0.0205.
NCI-H520: the relative viability with IMD-0354 + Trametinib (first compound 0.04 µM) worked out at 0.687; with IMD-0354 + Trametinib (first compound 0.1265 µM), 0.725; in the test with IMD-0354 + Trametinib (first compound 0.4 µM) it was 0.522; with IMD-0354 + Trametinib (first compound 1.265 µM) it was 0.143; with IMD-0354 + Trametinib (first compound 4 µM) it was 0.149; with IMD-0354 + Linsitinib (first compound 0.04 µM), 1.16. Further, the relative viability was 0.816 with IMD-0354 + Linsitinib (first compound 0.1265 µM); 0.469 with IMD-0354 + Linsitinib (first compound 0.4 µM); 0.187 with IMD-0354 + Linsitinib (first compound 1.265 µM); 0.179 with IMD-0354 + Linsitinib (first compound 4 µM); 0.512 with IMD-0354 + Decitabine (first compound 0.04 µM); 0.462 with IMD-0354 + Decitabine (first compound 0.1265 µM). Besides, the relative viability with IMD-0354 + Decitabine (first compound 0.4 µM) is 0.435; with IMD-0354 + Decitabine (first compound 1.265 µM) it was 0.158; in the test with IMD-0354 + Decitabine (first compound 4 µM), 0.192; in the test with CX-5461 + Luminespib (first compound 0.01 µM), 0.195; with CX-5461 + Luminespib (first compound 0.03162 µM) it was 0.194; in the test with CX-5461 + Luminespib (first compound 0.1 µM) it was 0.202. Also, the relative viability with CX-5461 + Luminespib (first compound 0.3162 µM) came out at 0.262; in the test with CX-5461 + Luminespib (first compound 1 µM) it was 0.218.
Regarding NCI-H596, the relative viability is 0.843 in the test with IMD-0354 + Trametinib (first compound 0.04 µM); 0.649 with IMD-0354 + Trametinib (first compound 0.1265 µM); 0.639 in the test with IMD-0354 + Trametinib (first compound 0.4 µM); 0.659 in the test with IMD-0354 + Trametinib (first compound 1.265 µM); 0.512 with IMD-0354 + Trametinib (first compound 4 µM); 0.973 with IMD-0354 + Linsitinib (first compound 0.04 µM). Further, the relative viability in the test with IMD-0354 + Linsitinib (first compound 0.1265 µM) is 1.05; with IMD-0354 + Linsitinib (first compound 0.4 µM), 0.839; in the test with IMD-0354 + Linsitinib (first compound 1.265 µM) it was 1.21; in the test with IMD-0354 + Linsitinib (first compound 4 µM), 0.682; with IMD-0354 + Decitabine (first compound 0.04 µM), 1.02; with IMD-0354 + Decitabine (first compound 0.1265 µM) it was 0.998. Besides, the relative viability is 0.825 with IMD-0354 + Decitabine (first compound 0.4 µM); 0.849 with IMD-0354 + Decitabine (first compound 1.265 µM); 0.616 in the test with IMD-0354 + Decitabine (first compound 4 µM); 1.07 in the test with CX-5461 + Luminespib (first compound 0.01 µM); 0.912 in the test with CX-5461 + Luminespib (first compound 0.03162 µM); 1.17 with CX-5461 + Luminespib (first compound 0.1 µM). Besides, the relative viability in the test with CX-5461 + Luminespib (first compound 0.3162 µM) and with CX-5461 + Luminespib (first compound 1 µM) was 1.12 each time.
With NCI-H647, the relative viability in the test with IMD-0354 + Trametinib (first compound 0.04 µM) stood at 0.432; in the test with IMD-0354 + Trametinib (first compound 0.1265 µM), 0.616; with IMD-0354 + Trametinib (first compound 0.4 µM) it was 0.175; in the test with IMD-0354 + Trametinib (first compound 1.265 µM), 0.107; with IMD-0354 + Trametinib (first compound 4 µM), 0.0901; with IMD-0354 + Linsitinib (first compound 0.04 µM), 1.36. Further, the relative viability with IMD-0354 + Linsitinib (first compound 0.1265 µM) was determined as 1.1; with IMD-0354 + Linsitinib (first compound 0.4 µM) it was 0.515; in the test with IMD-0354 + Linsitinib (first compound 1.265 µM), 0.276; in the test with IMD-0354 + Linsitinib (first compound 4 µM), 0.158; in the test with IMD-0354 + Decitabine (first compound 0.04 µM) it was 0.381; with IMD-0354 + Decitabine (first compound 0.1265 µM), 0.426. In addition, the relative viability with IMD-0354 + Decitabine (first compound 0.4 µM) amounted to 0.237; in the test with IMD-0354 + Decitabine (first compound 1.265 µM), 0.117; with IMD-0354 + Decitabine (first compound 4 µM) it was 0.106; with CX-5461 + Luminespib (first compound 0.01 µM), 0.192; with CX-5461 + Luminespib (first compound 0.03162 µM), 0.163; with CX-5461 + Luminespib (first compound 0.1 µM) it was 0.169. Also, the relative viability with CX-5461 + Luminespib (first compound 0.3162 µM) is 0.146; with CX-5461 + Luminespib (first compound 1 µM), 0.108.
